Measured values as given in patent publication US20090233979A1, “Indole Derivatives and Their Use as Thyroid Receptor Ligands” (KARO BIO AB, priority 2006, published 2009).
pIC50: −log10 of the molar value.

Experiments:
[1] = target: T1, hTRβ (Homo sapiens, UniProt P10828); test: TR competition binding assay with filter separation; conditions: for pIC50: competition with tracer 125I-T3, full length hTRβ, read-out: TR-β IC50; for binding to the TR-β receptor and/or agonistic activity compared to compounds lacking a substituent in the 2-position on the indole ring: versus Comparative Examples 1, 3, 4
T1 sequence (P10828 1-461): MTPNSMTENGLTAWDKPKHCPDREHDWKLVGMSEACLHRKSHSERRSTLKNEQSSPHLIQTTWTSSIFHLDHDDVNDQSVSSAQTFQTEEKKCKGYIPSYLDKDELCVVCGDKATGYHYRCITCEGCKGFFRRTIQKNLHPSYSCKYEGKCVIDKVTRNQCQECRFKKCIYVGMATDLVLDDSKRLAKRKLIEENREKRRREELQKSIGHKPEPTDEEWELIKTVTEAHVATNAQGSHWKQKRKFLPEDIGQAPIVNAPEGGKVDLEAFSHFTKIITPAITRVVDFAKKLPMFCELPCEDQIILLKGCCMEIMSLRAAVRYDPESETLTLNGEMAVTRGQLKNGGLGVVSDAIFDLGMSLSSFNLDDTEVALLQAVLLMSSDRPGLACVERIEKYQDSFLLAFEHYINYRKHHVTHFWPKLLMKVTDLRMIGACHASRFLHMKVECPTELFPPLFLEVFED
Experimental: TR Competition Binding Assay with Filter Separation
Compounds are tested for their ability to compete with the tracer ^125I-T3 for binding to full length hTRα and hTRβ. Receptor extracts and tracer are diluted in assay buffer (17 mM K2HPO4, 3 mM KH2PO4, 400 mM KCl, 1 mM MgCl2, 0.5 mM EDTA and 8.7% glycerol). ^125I-T3 is diluted to a final concentration of 0.2 nM and receptor is diluted to reach a final count in Trilux Microbeta of approximately 10000 ccpm. […] To 96 well microtiter plates are 100 μl tracer, 4 μl test compound dilution series and 100 μl receptor dilution added. The assay plates are incubated at +4° C. over night (app. 16 hrs incubation). Receptor bound and free tracer are separated over a glass fiber filter ([…] B, PerkinElmer)) on a Tomtec Cellharvester with 18 mM K2HPO4, 2 mM KH2PO4, 0.5 mM EDTA wash buffer. The filters are dried at 60° C. for 1 hour and then merged with a scintillant wax (MELTILEX, PerkinElmer) on a Wallac Microsealer before measuring in a Trilux Microbeta. IC50s, the concentration test compound needed to decrease tracer binding by 50 percent, are generated via analysis of data in XLfit version 2.0 or later with a four parameter logistic model.

[2] = target: T2, human ThRβ1 (Homo sapiens, UniProt P10828); test: Reporter cell line (TRAF) assay, CHO/hThRβ1, alkaline phosphatase reporter; assay type: cell-based; conditions: CHO/hThRβ1 reporter cells, 48 hours incubation; read-out: β % agonism
T2 construct: The cDNAs encoding the full length human ThRα1 and ThRβ1; expressed in transfected cells
T2 sequence (P10828 1-461): T1 sequence (P10828 1-461)
Excerpt: Vector Constructs, Generation of Reporter Cell Lines (TRAF), and Assay Procedure.
The cDNAs encoding the full length human ThRα1 and ThRβ1 were cloned in the mammalian expression vector pMT-hGH. The pDR4-ALP reporter vector contains one copy of the direct repeat sequence AGGTCA nnnnAGGTCA, fused upstream of the core promoter sequences of the mouse mammary tumor virus long terminal repeat (MMTV), replacing the glucocorticoid response elements. The DR4-MMTV promoter fragment was then cloned in the 5′ end of the cDNA encoding human placental alkaline phosphatase (ALP), followed in the 3′-end by the polyA-signal sequence of the human growth hormone gene. Chinese hamster ovary (CHO) K1 cells (ATCC No. CCL 61) were transfected in two steps, first with the receptor expression vectors pMT-hThRα1 and pMT-ThRβ1, respectively, and the drug resistance vector pSV2-Neo, and in the second step, with the reporter vector pDR4-ALP and the drug resistance vector pKSV-Hyg. Individual drug resistant clones were isolated and selected based on T3 inducibility. One stable reporter cell clone each of CHO/hThRα1 and CHO/hThRβ1 were chosen for further study in response to various thyroid hormone agonists.
CHO/hThRα1 and CHO/hThRβ1 were seeded in growth medium (Coon's/F12, 10% L-3,5,3′-triiodothyronine and L-thyroxine depleted FCS, 2 mM L-glutamine) in 96-well plates at 20×10^3 cells per well. After 24 hour incubation at 37° C. in humidified chambers, at 5% CO2, conditioned medium was replaced by induction medium (OptiMEM, 2 mM L-glutamine, […] gentamycin) and cells were exposed to the test compounds at serial dilutions, at final DMSO concentration of 0.5%, or to serial dilution of T3 (positive control), to assess agonist activity of test compounds.
In order to examine antagonistic effect of test compounds, CHO/hThRα1 and […] were exposed to serial dilution of the compounds in the presence of 1 nM T3 (CHO/hThRα1) or 3 nM T3 (CHO/hThRβ1).
After 48 hours incubation at 37° C. in humidified chambers at 5% CO2 the level of alkaline phosphatase expressed and secreted into the cell culture medium was analyzed by chemiluminescence on MicroBeta Trilux.

SMILES	pIC50 [1]	Emax [2] [%]	binding to the TR-β receptor and/or agonistic activity compared to compounds lacking a substituent in the 2-position on the indole ring [1]
COc1ccc(-c2[nH]c3ccc(Oc4c(Cl)cc(CCC(=O)O)cc4Cl)cc3c2C(C)C)cc1 [Comparative Example 2, 3-{3,5-Dichloro-4-[3-isopropyl-2-(4-methoxy-phenyl)-1H-indol-5-yloxy]-phenyl}-propionic acid, reference compound]	7.29	80.2	
CCOC(=O)CNc1cc(C)c(Oc2ccc3[nH]cc(C(C)C)c3c2)c(C)c1 [compound 3, reference compound]	6.49	69.7	
Cc1cc(NCC(=O)O)cc(C)c1Oc1ccc2[nH]cc(C(C)C)c2c1 [compound 4, reference compound]	7.37	39.7	

Stronger by pIC50 [1], values ahead:

pIC50 [1]	Emax [2] [%]	SMILES	binding to the TR-β receptor and/or agonistic activity compared to compounds lacking a substituent in the 2-position on the indole ring [1]
8.05	70.7	CCCc1c(-c2ccc(OC)cc2)[nH]c2ccc(Oc3c(Br)cc(CCC(=O)O)cc3Br)cc12 [Example 13, 3-(3,5-dibromo-4-{[2-(4-methoxyphenyl)-3-propyl-1H-indol-5-yl]oxy}phenyl)propanoic acid]	improved binding to the TR-β receptor and/or improved agonistic activity
8.15	97.5	COc1ccc(-c2[nH]c3ccc(Oc4c(Br)cc(CCC(=O)O)cc4Br)cc3c2C)cc1 [Example 3, 3-(3,5-dibromo-4-{[2-(4-methoxyphenyl)-3-methyl-1H-indol-5-yl]oxy}phenyl)propanoic acid]	improved binding to the TR-β receptor and/or improved agonistic activity
8.56	79.7	CCc1c(-c2ccc(OC)cc2)[nH]c2ccc(Oc3c(Br)cc(CCC(=O)O)cc3Br)cc12 [Example 10, 3-(3,5-dibromo-4-{[2-(4-methoxyphenyl)-3-ethyl-1H-indol-5-yl]oxy}phenyl)propanoic acid]	improved binding to the TR-β receptor and/or improved agonistic activity
8.60	76.9	CCc1c(-c2ccc3c(c2)OCO3)[nH]c2ccc(Oc3c(Cl)cc(CCC(=O)O)cc3Cl)cc12 [Example 8, 3-(4-{[2-(1,3-benzodioxol-5-yl)-3-ethyl-1H-indol-5-yl]oxy}-3,5-dichlorophenyl)propanoic acid]	improved binding to the TR-β receptor and/or improved agonistic activity
9.48	70.3	CCc1c(-c2ccc3c(c2)OCO3)[nH]c2ccc(Oc3c(Br)cc(CCC(=O)O)cc3Br)cc12 [Example 9, 3-(4-{[2-(1,3-benzodioxol-5-yl)-3-ethyl-1H-indol-5-yl]oxy}-3,5-dibromophenyl)propanoic acid]	improved binding to the TR-β receptor and/or improved agonistic activity
